PMC8891108, “Development and characterization of anti-fibrotic natural compound similars with improved effectivity” (Basic Research in Cardiology, 2022)
pEC50: −log10 of the molar value.

What was measured:
Type in all cases: cell-based
[1] = test system: human cardiac fibroblasts (HCF); test: In vitro migration (scratch) assay of HCF; details: 10 × EC50
Method: To assess migrative capabilities of HCF, cells were stained with 1:1000 1,1′-Dioctadecyl-3,3,3′,3′-Tetramethylindotricarbocyanine Iodide (DIR′) dye in FGM-3 for 20 min at 37 °C. Cells were washed with DPBS and seeded into 0.1% gelatine-coated 96-well plates at 30,000 cells per well. […] After 17 h and 24 h, plates were imaged again. Rate of migration was determined using the migrative index (MI).

[2] = test system: human cardiac fibroblasts (HCF); test: TaqMan Array Human MicroRNA Cards, miRNA deregulation in HCF
Method: PCR amplification of array cards was performed as instructed. After quality control of all real-time qPCRs, cT values were exported and all runs were merged into a single excel file. Recommended baseline correction using relative thresholds to correct for varying reconstitution rates of different Taqman probes was not performed. Low-expressed miRNAs with cT > 32 in more than 1 replicate per treatment were excluded from analysis, before samples were normalized to column mean. Multiple unpaired t tests were performed using GraphPad Prism, deregulations were accepted as discoveries if FDR ≤ 1% (using BKY adjustment). As miRNA identifiers were based on miRbase v14, we converted them to the latest v22 for further analysis using miRBaseConverter. 747 sequences could be converted correctly, while the remaining miRNAs were removed from miRbase due to incorrect annotation (e.g. the sequences of hsa-miR-886-3p and hsa-miR-886-5p are part of VTRNA2-1 [44]) or no evidence of human expression.

[3] = test system: human cardiac fibroblasts (HCF); test: Caspase-3/7 activation (Caspase-Glo) in HCF; details: within the tested concentration range
Method: As contrast to activity, toxicity of top six similars and lead compounds was determined by a multiplex measurement of caspase activation and membrane integrity (using LDH release and inclusion of the CellTox Green dye). Briefly, HCFs were seeded as before. After 24 h, cells were treated with serial dilutions of compounds with additional 0.1% CellTox™ Green dye (Promega, #G8741). After 24 h incubation, 5 µL medium was removed from each well, mixed with 95 µL LDH Storage buffer (Promega, #J2380) and frozen for later analysis. 95 µL Caspase-Glo® 3/7 reagent (Promega, #G8090) was added to each well, and after 60 min of incubation luminescence was measured in a Synergy HT. Afterwards, micrographs of brightfield and green fluorescence were taken using a Cytation 1 (BioTek) automated microscope maintaining 37 °C and 5% CO2. Wells were manually checked for co-localization of fluorescence signal with cells in brightfield. On the next day, supernatants in LDH Storage buffer were thawed, and 50 µL was mixed with 50 µL of LDH Detection reagent and luminescence was measured after 60 min of incubation. Dose–response curves were determined as described before. To determine toxicity of the top 3 anti-fibrotic similars in hiPS-CM, 20,000 cells/well were seeded, treated and analysed as above, devoid the fluorescent dye steps.

[4] = test system: human cardiac fibroblasts (HCF); test: BrdU incorporation, HCF proliferation (first screen); details: Homo sapiens, Cardiac fibroblast, 24 h, read-out: Effective conc. (BrdU), EC50 by BrdU assay
Method: 96-well plates (TPP) were coated with 0.1% gelatine and seeded with 7500 HCFs/well. After 72 h, medium was exchanged with serial dilutions of compounds in FGM-3 + 1.6% DMSO + 1% 5-bromo-2′-deoxyuridine (BrdU, Roche, #11647229001), prepared in additional plates. After 24 h, cells were washed twice with DPBS (Gibco, #14190144) before incubation with anti-BrdU:POD (Roche, #11647229001) for 60 min (RT). Readout was performed by measurement of absorbance at 370 nm + 490 nm in a Synergy HT (BioTek) microplate reader. […] As validation, HCF were seeded as before, but treated with serial dilutions of compounds after 24 h. […] After 60 min of incubation (37 °C, in the dark), absorbance at 450 nm + 630 nm was measured maintaining 37 °C and analysed as described before.
To assess screening quality, quality acceptance criteria Z′ (Z prime), SW (signal window), S:B (signal-to-background), S:N (signal-to-noise) were determined following. Average Z′ ≥ 0.5 and SW ≥ 2 were required to accept the screening overall, whereas single plates were rejected from analysis if Z′ < 0.3 or SW < 1.

[5] = mean of DMSO minus mean of treatment

## C[C@]12CC[C@H](O)C[C@H]1CC[C@@H]1[C@@H]2CC[C@]2(C)[C@@H](c3ccc(=O)oc3)CC[C@]12O [Bufalin, bufalin]
[1]
  HCF migration: nearly complete lack of migration within the first half hour
[2]; cT normalized to column mean
  Mean of treatment, hsa-miR-125a-5p-002198: -1.094
  Mean of treatment, hsa-miR-132-000457: -3.644
  Mean of treatment, hsa-miR-146a-000468: -6.478
  Mean of treatment, hsa-miR-886-3p-002194: -0.5419
[2]; [5]
  Difference / ΔCT, hsa-miR-125a-5p-002198: -1.48
  Difference / ΔCT, hsa-miR-132-000457: 1.1
  Difference / ΔCT, hsa-miR-146a-000468: -1.167
  Difference / ΔCT, hsa-miR-886-3p-002194: -2.302
[3]
  induction of Caspase-3/7: dose-dependent induction of Caspase-3/7
[4]
  pEC50: 8.68
